Measured values from ChEMBL document CHEMBL5365401, “Discovery of 5-((1H-indazol-3-yl) methylene)-2-thioxoimidazolidin-4-one derivatives as a new class of AHR agonists with anti-psoriasis activity in a mouse model” (Bioorg Med Chem Lett, 2023).
Calls of active or inactive are those of the source. The rule behind the calls is not given here.

Each compound was assayed on Mus musculus (assay: Anti-psoriatic activity in imiquimod-induced BALB/c mouse model assessed as decrease in psoriasis-like skin lesion at 1 % administered topically). Details: Zone of skin, route top.
Format: functional, organism-based

`C#CCN1C(=O)/C(=C/c2n[nH]c3ccccc23)NC1=S` was tested, and the Activity was “Active”.

Each compound was assayed against T1, Aryl hydrocarbon receptor (Homo sapiens, UniProt P35869) (assay: Agonist activity at AHR in human HepG2 cells stably transfected with DRE assessed as increase in CYP1A1 mRNA expression by qPCR assay). Details: dose 0.1-10 µM.
T1 sequence (P35869 whole entry): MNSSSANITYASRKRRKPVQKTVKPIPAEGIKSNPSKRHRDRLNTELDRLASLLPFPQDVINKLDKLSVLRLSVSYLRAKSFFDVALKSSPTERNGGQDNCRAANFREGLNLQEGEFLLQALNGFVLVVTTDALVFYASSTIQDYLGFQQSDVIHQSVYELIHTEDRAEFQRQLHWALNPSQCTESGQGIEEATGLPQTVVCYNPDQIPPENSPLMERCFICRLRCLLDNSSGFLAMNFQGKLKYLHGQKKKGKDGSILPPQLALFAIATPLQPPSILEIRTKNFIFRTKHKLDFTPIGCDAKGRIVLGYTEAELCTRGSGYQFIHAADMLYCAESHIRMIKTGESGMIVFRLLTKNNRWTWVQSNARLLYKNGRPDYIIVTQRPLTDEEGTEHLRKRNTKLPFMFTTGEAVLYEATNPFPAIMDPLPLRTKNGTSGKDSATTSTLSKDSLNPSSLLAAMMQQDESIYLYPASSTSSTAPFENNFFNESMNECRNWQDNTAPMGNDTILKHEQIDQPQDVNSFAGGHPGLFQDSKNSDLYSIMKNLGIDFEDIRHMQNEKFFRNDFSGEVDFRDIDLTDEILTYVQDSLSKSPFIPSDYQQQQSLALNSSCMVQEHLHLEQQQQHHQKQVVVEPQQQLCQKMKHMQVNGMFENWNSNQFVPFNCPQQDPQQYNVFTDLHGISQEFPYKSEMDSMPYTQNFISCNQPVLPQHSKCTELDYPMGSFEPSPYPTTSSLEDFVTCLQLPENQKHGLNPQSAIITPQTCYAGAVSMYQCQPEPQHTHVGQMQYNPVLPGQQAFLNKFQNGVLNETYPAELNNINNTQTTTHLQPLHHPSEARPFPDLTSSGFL
Format: cell-based

`C#CCN1C(=O)/C(=C/c2n[nH]c3ccccc23)NC1=S` was tested, and the Activity was “Dose-Dependent Effect”.

Each compound was assayed against T1, Aryl hydrocarbon receptor (assay: Agonist activity at AHR in human HepG2 cells stably transfected with DRE assessed as increase in AHR nuclear translocation at 1 to 10 uM by Western blot analysis). Details: dose 1-10 µM.
Format: cell-based

With `C#CCN1C(=O)/C(=C/c2n[nH]c3ccccc23)NC1=S` the Activity was “Dose-Dependent Effect”.

The compounds below were run against T1, Aryl hydrocarbon receptor (assay: Agonist activity at AHR in human HepG2-Lucia AhR cells stably transfected with DRE by luciferase reporter assay). Details: not given.
Format: cell-based

Going from `CN1C(=O)/C(=C/c2csc3ccccc23)NC1=S` to `CN1C(=O)/C(=C/c2c[nH]c3ccccc23)NC1=S`, the EC50 falls from 1.8 µM to 0.143 µM (13-fold). The second is the more potent here.

Compared with `CN1C(=O)C(Cc2c[nH]c3ccccc23)NC1=S` (stereo not given) [NECROSTATIN], `CCN1C(=O)/C(=C\c2c[nH]c3ccccc23)NC1=S` is lower in EC50: over 10 µM for the first, 1.8 µM for the second.

`O=C1NC(=O)/C(=C/c2c[nH]c3ccccc23)N1` and `O=C1NC(=S)N/C1=C\c1c[nH]c2ccccc12` cannot be ordered by EC50: over 10 µM for the first, over 10 µM for the second.

First: C#CCN1C(=O)/C(=C/c2n[nH]c3ccccc23)NC1=S
Second: CCN1C(=O)/C(=C/c2n[nH]c3ccccc23)NC1=S
The EC50 of the first is 15-fold lower: 0.015 µM for the first, 0.219 µM for the second.

Compared with `COc1cccc(OC)c1C(=O)OCc1cc(=O)n2cc(Br)ccc2n1`, `Cc1ccc([N+](=O)[O-])c2c1NC(c1ccc(Br)cc1)=NO2` is 1.7-fold lower in EC50: 5.9 µM for the first, 3.4 µM for the second.

`Cc1cc(-c2nnc3sc(-c4ccccc4Br)nn23)[nH]n1` and `CN1C(=S)NC(=O)/C1=C/c1n[nH]c2ccccc12` are within 1.5-fold of each other in EC50: 2.8 µM for the first, 2.5 µM for the second.

Going from `CN1C(=O)/C(=C/c2n[nH]c3ccccc23)NC1=S` to `CC#CCN1C(=O)/C(=C/c2n[nH]c3ccccc23)NC1=S`, the EC50 rises from 0.049 µM to 0.528 µM (11-fold).

`CN1C(=O)/C(=C/c2cncnc2)NC1=S` and `Cc1[nH]c2ccccc2c1/C=C1\NC(=S)N(C)C1=O` cannot be ordered by EC50: over 10 µM for the first, over 10 µM for the second.

`CC(C)N1C(=O)/C(=C/c2c[nH]c3ccccc23)NC1=S` was tested, and the EC50 was 10 µM.
